Data as given in ChEMBL document CHEMBL1255329, “Effect of polysorbate 80 on oritavancin binding to plastic surfaces: implications for susceptibility testing” (2008).
Converted amounts (≈) assume the structure as drawn.

Tests used:
Format in all cases: functional
Streptococcus viridans [1] = assay: Antibacterial activity against Streptococcus viridans group clinical isolate by broth microdilution method
Streptococcus pneumoniae [2] = assay: Antibacterial activity against Streptococcus pneumoniae ATCC 49619 in CAMHB medium containing 2% LHB by broth microdilution method in presence of 0.002% polysorbate 80
Staphylococcus [3] = assay: Antibacterial activity against coagulase-negative Staphylococcus clinical isolate by broth microdilution method
Enterococcus faecalis [4] = assay: Antibacterial activity against Enterococcus faecalis clinical isolate by broth microdilution method
Streptococcus pyogenes [5] = assay: Antibacterial activity against Streptococcus pyogenes clinical isolate by broth microdilution method in presence of 0.002% polysorbate 80
Streptococcus agalactiae [6] = assay: Antibacterial activity against Streptococcus agalactiae clinical isolate using 2% LHB by broth microdilution method
Staphylococcus aureus [7] = assay: Antibacterial activity against Staphylococcus aureus clinical isolate by broth microdilution method
Streptococcus pneumoniae [8] = assay: Antibacterial activity against Streptococcus pneumoniae clinical isolate by broth microdilution method
Staphylococcus aureus [9] = assay: Antibacterial activity against Staphylococcus aureus clinical isolate by broth microdilution method in presence of 0.002% polysorbate 80
Enterococcus faecalis [10] = assay: Antibacterial activity against Enterococcus faecalis ATCC 29212 in CAMHB medium containing 2% LHB by broth microdilution method in absence of 0.002% polysorbate 80
[11] = Antibacterial activity against Streptococcus Group G clinical isolate by broth microdilution method; conditions: Streptococcus sp. 'group G'
Staphylococcus [12] = assay: Antibacterial activity against coagulase-negative Staphylococcus clinical isolate by broth microdilution method in presence of 0.002% polysorbate 80
Streptococcus viridans [13] = assay: Antibacterial activity against Streptococcus viridans group clinical isolate by broth microdilution method in presence of 0.002% polysorbate 80
Streptococcus pneumoniae [14] = assay: Antibacterial activity against Streptococcus pneumoniae ATCC 49619 in CAMHB medium containing 2% LHB by broth microdilution method in absence of 0.002% polysorbate 80
Streptococcus pneumoniae [15] = assay: Antibacterial activity against Streptococcus pneumoniae ATCC 49619 in BHI broth by broth microdilution method in presence of 0.002% polysorbate 80
[16] = Antibacterial activity against Streptococcus Group G clinical isolate by broth microdilution method in presence of 0.002% polysorbate 80; conditions: Streptococcus sp. 'group G'
[17] = Antibacterial activity against Streptococcus Group C clinical isolate by broth microdilution method; conditions: Streptococcus sp. 'group C'
Streptococcus pneumoniae [18] = assay: Antibacterial activity against Streptococcus pneumoniae clinical isolate by broth microdilution method in presence of 0.002% polysorbate 80
Streptococcus pneumoniae [19] = assay: Antibacterial activity against Streptococcus pneumoniae ATCC 49619 in BHI broth by broth microdilution method in absence of 0.002% polysorbate 80
Streptococcus pneumoniae [20] = assay: Antibacterial activity against Streptococcus pneumoniae ATCC 49619 in BHI broth containing 2% LHB by broth microdilution method in presence of 0.002% polysorbate 80
Streptococcus agalactiae [21] = assay: Antibacterial activity against Streptococcus agalactiae clinical isolate using 2% LHB by broth microdilution method in presence of 0.002% polysorbate 80
Enterococcus faecium [22] = assay: Antibacterial activity against Enterococcus faecium clinical isolate by broth microdilution method in presence of 0.002% polysorbate 80
Streptococcus pneumoniae [23] = assay: Antibacterial activity against Streptococcus pneumoniae ATCC 49619 in BHI broth containing 2% LHB by broth microdilution method in absence of 0.002% polysorbate 80
[24] = Antibacterial activity against Streptococcus Group C clinical isolate by broth microdilution method in presence of 0.002% polysorbate 80; conditions: Streptococcus sp. 'group C'
Streptococcus pyogenes [25] = assay: Antibacterial activity against Streptococcus pyogenes clinical isolate by broth microdilution method
Enterococcus faecalis [26] = assay: Antibacterial activity against Enterococcus faecalis clinical isolate by broth microdilution method in presence of 0.002% polysorbate 80
Enterococcus faecium [27] = assay: Antibacterial activity against Enterococcus faecium clinical isolate by broth microdilution method
Enterococcus faecalis [28] = assay: Antibacterial activity against Enterococcus faecalis ATCC 29212 in CAMHB medium containing 2% LHB by broth microdilution method in presence of 0.002% polysorbate 80
Staphylococcus aureus [29] = assay: Antibacterial activity against Staphylococcus aureus ATCC 29213 in CAMHB medium containing 2% LHB by broth microdilution method in presence of 0.002% polysorbate 80
Staphylococcus aureus [30] = assay: Antibacterial activity against Staphylococcus aureus ATCC 29213 in CAMHB medium containing 2% LHB by broth microdilution method in absence of 0.002% polysorbate 80
Staphylococcus aureus [31] = assay: Antibacterial activity against Staphylococcus aureus ATCC 29213 assessed as reduction in compound MIC by broth microdilution method in presence of 0.002% polysorbate 80 in inoculum
Enterococcus faecalis [32] = assay: Ratio of MIC for Enterococcus faecalis clinical isolate to MIC for Enterococcus faecalis clinical isolate in presence of 0.002% polysorbate 80
Staphylococcus [33] = assay: Ratio of MIC for coagulase-negative Staphylococcus clinical isolate to MIC for coagulase-negative Staphylococcus clinical isolate in presence of 0.002% polysorbate 80
Streptococcus viridans [34] = assay: Ratio of MIC for Streptococcus viridans group clinical isolate to MIC for Streptococcus viridans group clinical isolate in presence of 0.002% polysorbate 80
Staphylococcus aureus [35] = assay: Ratio of MIC for Staphylococcus aureus clinical isolate to MIC for Staphylococcus aureus clinical isolate in presence of 0.002% polysorbate 80
Enterococcus faecium [36] = assay: Ratio of MIC for Enterococcus faecium clinical isolate to MIC for Enterococcus faecium clinical isolate in presence of 0.002% polysorbate 80
Staphylococcus aureus [37] = assay: Antibacterial activity against Staphylococcus aureus ATCC 29213 in CAMHB medium by broth microdilution method in presence of 0.002% polysorbate 80
Streptococcus pneumoniae [38] = assay: Ratio of MIC for Streptococcus pneumoniae clinical isolate to MIC for Streptococcus pneumoniae clinical isolate in presence of 0.002% polysorbate 80
Staphylococcus aureus [39] = assay: Antibacterial activity against Staphylococcus aureus ATCC 29213 assessed as reduction in compound MIC by broth microdilution method in presence of 0.002% polysorbate 80 in solvent
Staphylococcus aureus [40] = assay: Antibacterial activity against Staphylococcus aureus ATCC 29213 in CAMHB medium by broth microdilution method in absence of 0.002% polysorbate 80
Enterococcus faecalis [41] = assay: Antibacterial activity against Enterococcus faecalis ATCC 29212 in CAMHB medium by broth microdilution method in presence of 0.002% polysorbate 80
Streptococcus pyogenes [42] = assay: Ratio of MIC for Streptococcus pyogenes clinical isolate to MIC for Streptococcus pyogenes clinical isolate in presence of 0.002% polysorbate 80
Enterococcus faecalis [43] = assay: Antibacterial activity against Enterococcus faecalis ATCC 29212 in CAMHB medium by broth microdilution method in absence of 0.002% polysorbate 80

For CN[C@H](CC(C)C)C(=O)N[C@H]1C(=O)N[C@@H](CC(N)=O)C(=O)N[C@H]2C(=O)N[C@H]3C(=O)N[C@H](C(=O)N[C@H](C(=O)O)c4cc(O)cc(O)c4-c4cc3ccc4O)[C@H](O)c3ccc(c(Cl)c3)Oc3cc2cc(c3O[C@@H]2O[C@H](CO)[C@@H](O)[C@H](O)[C@H]2O[C@H]2C[C@](C)(N)[C@H](O)[C@H](C)O2)Oc2ccc(cc2Cl)[C@H]1O [VANCOMYCIN], the MIC90 (Streptococcus viridans [1]) was 0.5 µg/mL (≈ 0.345 µM), the MIC (Streptococcus pneumoniae [2]) was 0.25 µg/mL and the MIC90 (Staphylococcus [3]) was 1 µg/mL (≈ 0.69 µM). It also gave an MIC90 (Enterococcus faecalis [4]) of 2 µg/mL (≈ 1.38 µM), an MIC (Streptococcus pyogenes [5]) of 0.25 µg/mL and an MIC90 (Streptococcus pyogenes [5]) of 0.25 µg/mL. For the same molecule, the MIC90 (Streptococcus agalactiae [6]) was 0.5 µg/mL (≈ 0.345 µM), the MIC90 (Staphylococcus aureus [7]) was 1 µg/mL (≈ 0.69 µM) and the MIC90 (Streptococcus pneumoniae [8]) was 0.25 µg/mL (≈ 0.173 µM). The MIC90 (Staphylococcus aureus [9]) was 1 µg/mL, the MIC (Enterococcus faecalis [10]) was 2 µg/mL (≈ 1.38 µM) and the MIC [11] was 0.25 µg/mL (≈ 0.173 µM). The MIC90 (Staphylococcus [12]) was 2 µg/mL, the MIC90 (Streptococcus viridans [13]) was 0.5 µg/mL and the MIC (Streptococcus pneumoniae [14]) was 0.25 µg/mL (≈ 0.173 µM). The MIC (Streptococcus pneumoniae [15]) was 0.25 µg/mL, the MIC [16] was 0.25 µg/mL and the MIC [17] was 0.12 µg/mL (≈ 0.0828 µM). For the same molecule, the MIC90 (Streptococcus pneumoniae [18]) was 0.25 µg/mL, the MIC (Streptococcus pneumoniae [19]) was 0.25 µg/mL (≈ 0.173 µM) and the MIC (Streptococcus pneumoniae [20]) was 0.25 µg/mL. The MIC90 (Streptococcus agalactiae [21]) was 0.5 µg/mL, the MIC90 (Enterococcus faecium [22]) was > 256 µg/mL and the MIC (Streptococcus pneumoniae [23]) was 0.25 µg/mL (≈ 0.173 µM). It also gave an MIC [24] of 0.12 µg/mL, an MIC (Streptococcus pyogenes [25]) of 0.25 µg/mL (≈ 0.173 µM) and an MIC90 (Streptococcus pyogenes [25]) of 0.25 µg/mL (≈ 0.173 µM). For the same molecule, the MIC90 (Enterococcus faecalis [26]) was 2 µg/mL and the MIC90 (Enterococcus faecium [27]) was > 256 µg/mL.

For CN[C@H](CC(C)C)C(=O)N[C@H]1C(=O)N[C@@H](CC(N)=O)C(=O)N[C@H]2C(=O)N[C@H]3C(=O)N[C@H](C(=O)N[C@H](C(=O)O)c4cc(O)cc(O)c4-c4cc3ccc4O)[C@H](O[C@H]3C[C@](C)(N)[C@@H](O)[C@H](C)O3)c3ccc(c(Cl)c3)Oc3cc2cc(c3O[C@@H]2O[C@H](CO)[C@@H](O)[C@H](O)[C@H]2O[C@H]2C[C@](C)(NCc3ccc(-c4ccc(Cl)cc4)cc3)[C@@H](O)[C@H](C)O2)Oc2ccc(cc2Cl)[C@H]1O [ORITAVANCIN], the MIC90 (Streptococcus viridans [1]) was 1 µg/mL (≈ 0.558 µM), the MIC (Streptococcus pneumoniae [2]) was 0.002 µg/mL and the MIC (Enterococcus faecalis [28]) was 0.03 µg/mL. The MIC90 (Staphylococcus [3]) was 4 µg/mL (≈ 2.23 µM), the MIC90 (Enterococcus faecalis [4]) was 2 µg/mL (≈ 1.12 µM) and the MIC90 (Streptococcus pyogenes [5]) was 0.25 µg/mL. It also gave an MIC90 (Streptococcus agalactiae [6]) of 1 µg/mL (≈ 0.558 µM), an MIC90 (Staphylococcus aureus [7]) of 4 µg/mL (≈ 2.23 µM) and an MIC90 (Streptococcus pneumoniae [8]) of 0.004 µg/mL (≈ 0.00223 µM). For the same molecule, the MIC90 (Staphylococcus aureus [9]) was 0.12 µg/mL, the MIC (Enterococcus faecalis [10]) was 0.016 µg/mL (≈ 0.00892 µM) and the MIC [11] was 0.004 µg/mL (≈ 0.00223 µM). It also gave an MIC (Staphylococcus aureus [29]) of 0.03 µg/mL, an MIC (Staphylococcus aureus [30]) of 0.03 µg/mL (≈ 0.0167 µM) and an MIC90 (Staphylococcus [12]) of 0.25 µg/mL. It also gave an MIC90 (Streptococcus viridans [13]) of 1 µg/mL, an MIC (Streptococcus pneumoniae [14]) of 0.001 µg/mL (≈ 0.000558 µM) and an MIC (Streptococcus pneumoniae [15]) of 0.001 µg/mL. The “fold change (FC)” value (Staphylococcus aureus [31]) was 4, the Ratio (Enterococcus faecalis [32]) was 16 and the Ratio (Staphylococcus [33]) was 16. For the same molecule, the Ratio (Streptococcus viridans [34]) was 1, the MIC [16] was 0.004 µg/mL and the MIC [17] was 0.004 µg/mL (≈ 0.00223 µM). For the same molecule, the MIC90 (Streptococcus pneumoniae [18]) was 0.004 µg/mL, the Ratio (Staphylococcus aureus [35]) was 32 and the Ratio (Enterococcus faecium [36]) was 16. The MIC (Streptococcus pneumoniae [19]) was 0.008 µg/mL (≈ 0.00446 µM), the MIC (Streptococcus pneumoniae [20]) was 0.001 µg/mL and the MIC (Staphylococcus aureus [37]) was 0.03 µg/mL. For the same molecule, the Ratio (Streptococcus pneumoniae [38]) was 1, the MIC90 (Streptococcus agalactiae [21]) was 0.25 µg/mL and the “fold change (FC)” value (Staphylococcus aureus [39]) was 16. For the same molecule, the MIC (Staphylococcus aureus [40]) was 1 µg/mL (≈ 0.558 µM), the MIC90 (Enterococcus faecium [22]) was 0.25 µg/mL and the MIC (Streptococcus pneumoniae [23]) was 0.001 µg/mL (≈ 0.000558 µM). For the same molecule, the MIC [24] was 0.004 µg/mL, the MIC90 (Streptococcus pyogenes [25]) was 0.25 µg/mL (≈ 0.139 µM) and the MIC90 (Enterococcus faecalis [26]) was 0.12 µg/mL. It also gave an MIC (Enterococcus faecalis [41]) of 0.03 µg/mL, a Ratio (Streptococcus pyogenes [42]) of 1 and an MIC (Enterococcus faecalis [43]) of 0.5 µg/mL (≈ 0.279 µM). The MIC90 (Enterococcus faecium [27]) was 4 µg/mL (≈ 2.23 µM).
